The source made the active and inactive calls.
How the values were obtained:
Cytochrome P450 2D6 = Cytochrome P450 2D6 (Homo sapiens, UniProt P10635);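 also: CYP2D6 member of a cytochrome P450 panel assay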
cells = format: functional
Cytochrome P450 2C9 = Cytochrome P450 2C9 (Homo sapiens, UniProt P11712)
Cytochrome P450 1A2 = biological target: T1, Cytochrome P450 1A2 (Homo sapiens, UniProt P05177);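 also: PubChem cytochrome P450 panel assay, CYP1A2 panel member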
T1 sequence (P05177 whole entry): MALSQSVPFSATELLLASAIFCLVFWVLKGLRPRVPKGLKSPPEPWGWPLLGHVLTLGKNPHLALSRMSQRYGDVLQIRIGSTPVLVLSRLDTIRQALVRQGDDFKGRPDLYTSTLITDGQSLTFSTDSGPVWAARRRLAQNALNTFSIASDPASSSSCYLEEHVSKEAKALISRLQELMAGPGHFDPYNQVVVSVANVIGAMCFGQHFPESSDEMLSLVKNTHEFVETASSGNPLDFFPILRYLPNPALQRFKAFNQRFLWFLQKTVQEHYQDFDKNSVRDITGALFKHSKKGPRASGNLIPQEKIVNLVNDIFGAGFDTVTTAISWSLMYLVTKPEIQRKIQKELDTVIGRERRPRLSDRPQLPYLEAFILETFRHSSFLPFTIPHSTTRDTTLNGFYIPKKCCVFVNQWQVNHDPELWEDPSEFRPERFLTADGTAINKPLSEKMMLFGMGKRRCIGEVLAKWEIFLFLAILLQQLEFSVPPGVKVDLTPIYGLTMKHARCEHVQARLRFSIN

[1] = biological target: T2, RNA-binding protein pos-1 (Caenorhabditis elegans, UniProt G5EF15); assay: inhibitors of POS-1/mex-3 RNA binding, dose response, biochemical, fluorescence polarization (AID 1964);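 also: purified POS-1 fused to maltose binding protein made in E. coli; potency of compounds blocking POS-1 binding to fluorescent RNA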
T2 sequence (G5EF15 whole entry): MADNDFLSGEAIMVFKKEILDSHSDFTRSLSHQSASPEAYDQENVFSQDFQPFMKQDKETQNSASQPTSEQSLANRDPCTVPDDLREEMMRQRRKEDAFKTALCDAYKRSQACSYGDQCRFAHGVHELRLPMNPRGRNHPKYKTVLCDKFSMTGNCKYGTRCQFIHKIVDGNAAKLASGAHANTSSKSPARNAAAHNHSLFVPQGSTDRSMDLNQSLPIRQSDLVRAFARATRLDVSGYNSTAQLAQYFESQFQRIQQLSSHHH

[2] = biological target: T3, Zinc finger protein mex-5 (Caenorhabditis elegans, UniProt Q9XUB2); assay: MEX-5/TCR-2 RNA interaction inhibitors, dose response, biochemical, C. elegans, fluorescence polarization (AID 1960)
T3 sequence (Q9XUB2 whole entry): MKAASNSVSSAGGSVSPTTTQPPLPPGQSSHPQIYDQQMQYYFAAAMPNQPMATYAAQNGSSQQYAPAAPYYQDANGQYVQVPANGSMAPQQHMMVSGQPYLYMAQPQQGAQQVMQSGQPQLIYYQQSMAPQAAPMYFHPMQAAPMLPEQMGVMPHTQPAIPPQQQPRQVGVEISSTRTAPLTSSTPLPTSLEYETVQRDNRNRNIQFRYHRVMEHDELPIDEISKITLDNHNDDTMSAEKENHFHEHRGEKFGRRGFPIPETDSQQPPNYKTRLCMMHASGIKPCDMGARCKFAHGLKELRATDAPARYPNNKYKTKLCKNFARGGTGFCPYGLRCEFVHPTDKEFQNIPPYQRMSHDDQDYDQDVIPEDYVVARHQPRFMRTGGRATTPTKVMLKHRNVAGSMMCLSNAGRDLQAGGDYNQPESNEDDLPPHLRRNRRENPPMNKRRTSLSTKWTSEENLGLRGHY

[3] = biological target: T4, Rac GTPase-activating protein 1 (Homo sapiens, UniProt Q9H0H5); assay: MgcRacGAP GTPase-activating activity inhibitors, confirmation, biochemical, ADP Hunter fluorescence, primary and confirmatory (AID 624330); format: functional
T4 sequence (Q9H0H5 whole entry): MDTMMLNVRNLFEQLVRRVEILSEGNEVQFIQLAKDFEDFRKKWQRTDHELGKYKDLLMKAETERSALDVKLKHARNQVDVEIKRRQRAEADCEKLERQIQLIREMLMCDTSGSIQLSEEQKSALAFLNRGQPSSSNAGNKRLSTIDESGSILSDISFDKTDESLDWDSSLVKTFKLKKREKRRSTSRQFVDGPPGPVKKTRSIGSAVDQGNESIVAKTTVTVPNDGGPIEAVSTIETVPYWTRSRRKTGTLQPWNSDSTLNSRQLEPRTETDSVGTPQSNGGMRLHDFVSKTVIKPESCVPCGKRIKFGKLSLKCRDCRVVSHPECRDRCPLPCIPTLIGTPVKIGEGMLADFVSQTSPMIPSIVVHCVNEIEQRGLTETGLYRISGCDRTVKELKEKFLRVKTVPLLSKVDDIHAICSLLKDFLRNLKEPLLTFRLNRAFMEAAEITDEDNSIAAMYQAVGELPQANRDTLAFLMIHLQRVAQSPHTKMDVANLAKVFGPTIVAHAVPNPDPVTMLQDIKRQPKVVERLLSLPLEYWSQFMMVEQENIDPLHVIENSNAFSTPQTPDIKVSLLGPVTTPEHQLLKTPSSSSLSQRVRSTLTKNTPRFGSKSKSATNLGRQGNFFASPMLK

Large T antigen = Large T antigen (Simian virus 40, UniProt P03070); format: functional, Betapolyomavirus macacae;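 also: Confirmatory-stage PubChem screen for compounds that inhibit SV40 T antigen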
[4] = biological target: Luciferin 4-monooxygenase (Photinus pyralis, UniProt P08659); assay: firefly luciferase enzyme inhibitors, dose response, biochemical, luminescence (AID 1891)
[5] = Luminescence Cell-Based Dose Confirmation HTS to Identify Inhibitors of Platelet Dense Granule Release. [Related pubchem assays: 1663 (Primary HTS), 1678 (Summary of Project)]; format: functional
Cytochrome P450 3A4 = Cytochrome P450 3A4 (Homo sapiens, UniProt P08684);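 also: CYP3A4 tested as one member of a cytochrome P450 panel screen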
Cytochrome P450 2C19 = Cytochrome P450 2C19 (Homo sapiens, UniProt P33261); assay: Cytochrome panel assay with activity outcomes. Panel member name: p450-cyp2c19 Compounds with AC50 equal or less than 10 uM are considered active; format: functional; conditions: read-out: AC50
[6] = tested on: Streptococcus sp. 'group A'; assay: growth inhibition of control SK(-) GAS strain, dose response, counter-screen for streptokinase expression inhibitor project, luminescence, kanamycin, BacTiterGlo, confirmation (AID 1900); format: functional, organism-based
Streptococcus = assay: Group A Streptococcus viability loss, dose response, counter-screen for streptokinase expression inhibitor project, luminescence, BacTiterGlo (AID 1915); format: functional, organism-based;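 also: potency for reduction of bacterial viability or growth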

Cytochrome P450 2D6, sequence (P10635 whole entry): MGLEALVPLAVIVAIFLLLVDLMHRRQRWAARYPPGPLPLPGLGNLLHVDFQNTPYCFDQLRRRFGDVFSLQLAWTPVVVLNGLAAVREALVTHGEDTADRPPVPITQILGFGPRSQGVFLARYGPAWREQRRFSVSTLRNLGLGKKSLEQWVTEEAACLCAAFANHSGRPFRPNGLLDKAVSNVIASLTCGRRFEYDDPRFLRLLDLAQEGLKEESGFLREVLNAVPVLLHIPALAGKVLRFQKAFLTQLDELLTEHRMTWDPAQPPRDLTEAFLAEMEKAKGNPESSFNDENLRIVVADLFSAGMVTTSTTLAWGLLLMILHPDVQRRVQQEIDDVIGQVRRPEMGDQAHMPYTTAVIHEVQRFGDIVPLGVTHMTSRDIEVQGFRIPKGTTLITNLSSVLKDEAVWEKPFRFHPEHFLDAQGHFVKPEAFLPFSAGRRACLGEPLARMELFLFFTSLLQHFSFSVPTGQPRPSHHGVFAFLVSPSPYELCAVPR
Large T antigen, sequence (P03070 whole entry): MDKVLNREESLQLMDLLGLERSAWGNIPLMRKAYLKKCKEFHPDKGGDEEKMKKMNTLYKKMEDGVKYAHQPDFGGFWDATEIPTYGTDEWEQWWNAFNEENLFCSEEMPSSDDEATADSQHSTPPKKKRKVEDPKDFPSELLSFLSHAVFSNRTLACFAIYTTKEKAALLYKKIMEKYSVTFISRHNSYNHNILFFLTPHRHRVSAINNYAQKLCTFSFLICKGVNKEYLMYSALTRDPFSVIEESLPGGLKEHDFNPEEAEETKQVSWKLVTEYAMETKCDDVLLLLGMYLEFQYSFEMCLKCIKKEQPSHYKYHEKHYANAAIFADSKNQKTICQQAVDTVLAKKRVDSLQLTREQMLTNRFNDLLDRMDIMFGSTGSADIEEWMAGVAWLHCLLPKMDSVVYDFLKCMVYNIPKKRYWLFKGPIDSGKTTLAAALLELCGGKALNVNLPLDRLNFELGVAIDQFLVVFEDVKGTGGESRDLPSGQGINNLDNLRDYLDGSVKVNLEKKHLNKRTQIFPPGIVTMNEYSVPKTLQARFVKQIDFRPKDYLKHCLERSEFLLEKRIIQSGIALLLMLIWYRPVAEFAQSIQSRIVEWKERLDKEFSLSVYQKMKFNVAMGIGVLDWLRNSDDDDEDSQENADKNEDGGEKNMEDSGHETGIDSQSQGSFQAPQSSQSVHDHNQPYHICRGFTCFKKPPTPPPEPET
Cytochrome P450 2C9, sequence (P11712 whole entry): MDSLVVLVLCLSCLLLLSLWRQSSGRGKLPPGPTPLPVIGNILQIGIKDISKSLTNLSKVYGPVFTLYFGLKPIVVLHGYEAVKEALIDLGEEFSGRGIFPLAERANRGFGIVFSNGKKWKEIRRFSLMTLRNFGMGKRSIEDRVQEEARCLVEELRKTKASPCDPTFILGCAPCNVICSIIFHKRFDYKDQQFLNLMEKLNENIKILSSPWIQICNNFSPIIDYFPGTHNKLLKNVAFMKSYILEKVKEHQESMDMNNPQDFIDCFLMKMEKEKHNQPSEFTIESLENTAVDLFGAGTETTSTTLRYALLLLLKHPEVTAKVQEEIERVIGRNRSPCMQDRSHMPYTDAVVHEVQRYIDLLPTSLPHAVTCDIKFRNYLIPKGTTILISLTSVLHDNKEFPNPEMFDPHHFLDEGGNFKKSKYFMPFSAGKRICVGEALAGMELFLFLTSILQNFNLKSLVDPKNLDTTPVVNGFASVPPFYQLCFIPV
Cytochrome P450 2C19, sequence (P33261 whole entry): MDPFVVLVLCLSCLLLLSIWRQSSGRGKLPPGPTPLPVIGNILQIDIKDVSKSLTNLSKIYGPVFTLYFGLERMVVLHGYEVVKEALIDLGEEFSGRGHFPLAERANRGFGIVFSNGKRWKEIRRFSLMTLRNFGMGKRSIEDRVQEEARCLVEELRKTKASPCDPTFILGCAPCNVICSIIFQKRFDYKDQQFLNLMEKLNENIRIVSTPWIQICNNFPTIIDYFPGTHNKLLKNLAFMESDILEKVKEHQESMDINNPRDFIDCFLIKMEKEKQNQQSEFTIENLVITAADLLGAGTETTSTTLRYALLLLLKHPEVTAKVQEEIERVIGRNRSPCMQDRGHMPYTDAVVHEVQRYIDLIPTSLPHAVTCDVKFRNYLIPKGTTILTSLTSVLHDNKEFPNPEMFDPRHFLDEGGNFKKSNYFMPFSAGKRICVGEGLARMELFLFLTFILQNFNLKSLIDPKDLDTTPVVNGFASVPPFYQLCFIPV
Luciferin 4-monooxygenase, sequence (P08659 whole entry): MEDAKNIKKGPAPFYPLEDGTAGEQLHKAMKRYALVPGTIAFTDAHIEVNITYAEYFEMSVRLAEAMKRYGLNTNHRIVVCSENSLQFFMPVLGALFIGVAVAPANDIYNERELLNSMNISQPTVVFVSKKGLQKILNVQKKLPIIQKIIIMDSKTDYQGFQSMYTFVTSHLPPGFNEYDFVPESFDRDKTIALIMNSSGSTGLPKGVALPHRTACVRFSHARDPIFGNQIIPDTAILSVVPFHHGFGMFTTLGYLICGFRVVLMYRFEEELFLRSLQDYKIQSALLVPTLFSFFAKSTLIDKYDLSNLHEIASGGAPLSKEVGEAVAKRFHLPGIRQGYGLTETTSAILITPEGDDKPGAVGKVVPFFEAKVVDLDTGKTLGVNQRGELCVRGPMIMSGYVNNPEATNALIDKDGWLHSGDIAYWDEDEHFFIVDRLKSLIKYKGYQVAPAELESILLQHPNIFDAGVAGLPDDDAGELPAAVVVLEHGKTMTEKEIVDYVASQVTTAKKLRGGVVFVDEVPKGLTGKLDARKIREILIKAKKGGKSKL
Cytochrome P450 3A4, sequence (P08684 whole entry): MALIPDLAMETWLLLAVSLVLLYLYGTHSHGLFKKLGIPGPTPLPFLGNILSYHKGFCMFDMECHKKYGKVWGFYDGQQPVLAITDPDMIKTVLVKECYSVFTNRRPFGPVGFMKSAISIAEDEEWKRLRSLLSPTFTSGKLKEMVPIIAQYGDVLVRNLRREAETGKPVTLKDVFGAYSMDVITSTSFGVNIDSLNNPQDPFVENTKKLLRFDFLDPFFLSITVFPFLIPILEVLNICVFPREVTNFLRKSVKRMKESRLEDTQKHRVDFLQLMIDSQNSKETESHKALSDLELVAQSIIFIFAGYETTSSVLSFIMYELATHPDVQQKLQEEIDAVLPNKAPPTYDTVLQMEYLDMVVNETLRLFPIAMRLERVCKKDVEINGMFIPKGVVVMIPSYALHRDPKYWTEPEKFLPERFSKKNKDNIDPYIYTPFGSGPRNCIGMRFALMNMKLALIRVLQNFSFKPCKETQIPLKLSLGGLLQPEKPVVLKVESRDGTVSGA

With `Cc1ccc(N(CCC#N)C(=O)CSc2ccc3c(c2)OCCO3)cc1` as the compound, how does the AC50 (Cytochrome P450 2D6) read?
The AC50 was 25.1 µM (inconclusive).

Which IC50 (cells) does the source give for `O=C(Nc1ccc2c(c1)CCC2)c1ccc(Br)o1` here?
Its IC50 is > 50 µM (active).

For `O=C(Nc1ccc2nc(-c3ccc(Br)o3)[nH]c2c1)c1ccco1`, which AC50 (Cytochrome P450 2C9) is on record?
Its AC50 is 11.2 µM (inconclusive).

And the AC50 (Cytochrome P450 2D6)?
The AC50 was 1 µM (inconclusive).

With `O=C(O)[C@@H]1Cc2c([nH]c3ccccc23)[C@@H](CCCCO)N1` as the compound, how does the AC50 (Cytochrome P450 2D6) read?
The AC50 was 3.98 µM (inconclusive).

With `COCC(=O)N1CCC[C@@]2(CCN(c3ncccn3)C2)C1` as the compound, how does the AC50 (Cytochrome P450 2D6) read?
The AC50 was 15.8 µM (inconclusive).

Which AC50 (Cytochrome P450 2D6) does the source give for `CCCc1nc2ccccc2c(C(=O)OCC(=O)Nc2cccc(S(=O)(=O)N3CCOCC3)c2)c1CC` here?
The AC50 was 17.8 µM (inconclusive).

And the AC50 (Cytochrome P450 1A2)?
The AC50 was 10 µM (inconclusive).

For `N=c1c(C(=O)NC2CCCCC2)cc2c(=O)n3ccccc3nc2n1Cc1cccnc1`, which EC50 [1] is on record?
Its EC50 is > 300 µM (not active).

What about the EC50 [2] of the same compound?
Its EC50 is 12.7 µM (active).

What does the source list for `C/N=c1\scc(C)n1/N=C/c1ccc(O)cc1O`?
IC50 [3]: 10.5 µM (active); IC50 (Large T antigen): 4.27 µM (active)

For `COc1cc2c(cc1OC)-c1cc(Nc3ccc(N(C)C)cc3)nc(=O)n1CC2`, which EC50 [4] is on record?
The EC50 was > 112 µM (not active).

What about the IC50 (Large T antigen) of the same compound?
Its IC50 is 2.74 µM (active).

What about the EC50 [5] of the same compound?
The EC50 was 4.83 µM (active).

With `Fc1cccc(/C=N\N=C/c2cccc(F)c2)c1` as the compound, how does the AC50 (Cytochrome P450 3A4) read?
The AC50 was 31.6 µM (inconclusive).

What about the AC50 (Cytochrome P450 2D6) of the same compound?
Its AC50 is 25.1 µM (inconclusive).

With `CCOC(=O)c1cc(-c2csc(COc3ccccc3)n2)on1` as the compound, how does the IC50 (cells) read?
Its IC50 is < 0.1 µM (active).

Which AC50 (Cytochrome P450 2C19) does the source give for `Cn1c(C(=O)NCC2CCCO2)cc2c(=O)n3ccccc3nc21` (stereo not drawn) here?
Its AC50 is 17.8 µM (inconclusive).

What about the AC50 (Cytochrome P450 2C9) of the same compound?
Its AC50 is 25.1 µM (inconclusive).

And the AC50 (Cytochrome P450 2D6)?
Its AC50 is 3.55 µM (inconclusive).

With `COc1ccccc1-c1nc(NCc2cnc(C)cn2)c2ccccc2n1` as the compound, how does the AC50 (Cytochrome P450 2C19) read?
Its AC50 is 39.8 µM (inconclusive).

What about the AC50 (Cytochrome P450 2D6) of the same compound?
The AC50 was 31.6 µM (inconclusive).

Which IC50 (Large T antigen) does the source give for `COC(=O)c1[nH]c2ccccc2c1/C=C1\C(=O)NC(=O)N(c2ccc(OC)cc2)C1=O` here?
Its IC50 is 89 µM (active).

What does the source list for `COC(=O)c1cc(C(=O)OC)cc(-n2c(C)cc(C(=O)CC#N)c2C)c1`?
EC50 [1]: > 300 µM (not active); EC50 [2]: > 300 µM (not active)

What does the source list for `O=C1NC(=O)N(Cc2ccccc2Cl)C(=O)/C1=C/Nc1ccc(F)cc1`?
EC50 [1]: > 300 µM (not active); EC50 [2]: > 300 µM (not active)

Which IC50 (Large T antigen) does the source give for `Oc1ccc2[nH]ccc2c1` here?
The IC50 was 80.2 µM (active).

Which results are given for `O=C(Nc1nnc(C2=COCCO2)o1)c1cccc(C(F)(F)F)c1`?
IC50 (cells): 4.89 µM (active); EC50 [6]: 2.96 µM (active); EC50 (Streptococcus): 7.55 µM (active)

With `O=C(Nc1ccc(F)cc1)c1cc(S(=O)(=O)N2CCCCC2)cs1` as the compound, how does the AC50 (Cytochrome P450 2D6) read?
The AC50 was 25.1 µM (inconclusive).

Which results are given for `COCCn1c(=O)c(-c2cccc(C#N)c2)nc2cnc(N(C)C)nc21`?
AC50 (Cytochrome P450 2D6): 0.1 µM (inconclusive); AC50 (Cytochrome P450 1A2): 2 µM (inconclusive)

For `O=C(CSc1nc2ccccc2s1)Nc1nccs1`, which AC50 (Cytochrome P450 2D6) is on record?
The AC50 was 0.316 µM (inconclusive).

Which EC50 [1] does the source give for `Cc1ccc(S(=O)(=O)CCSc2nc(C)cc(C(F)(F)F)c2C#N)cc1` here?
Its EC50 is > 300 µM (not active).

What about the EC50 [2] of the same compound?
Its EC50 is 80.8 µM (active).

With `CCOC(=O)COc1ccc2c(c1)c(C(=O)OCC)c(C)n2CC` as the compound, how does the IC50 (cells) read?
The IC50 was 5.46 µM (active).

What does the source list for `CCOC(=O)c1c(NC(=O)CC2Nc3ccccc3NC2=O)sc(C)c1C` (stereo not drawn)?
EC50 [1]: > 300 µM (not active); EC50 [2]: > 300 µM (not active)

Which IC50 (Large T antigen) does the source give for `CCCCCCNC(=O)N[C@H](C(=O)NCCC[C@H]1CN2C(=NC[C@H]2C)N1CCC(c1ccccc1)c1ccccc1)C(C)O` (stereo partly drawn) here?
Its IC50 is > 100 µM (active).

Which IC50 (cells) does the source give for `N#CC1=C(N)Oc2[nH]nc(-c3cccnc3)c2C1c1ccc([N+](=O)[O-])o1` (stereo not drawn) here?
Its IC50 is 9.19 µM (active).
